The subject of one data set is EGFR^| UM-22B HNC cells. The data set can be described thus: 51Cr release assay of cetuximab-mediated ADCC by motolimod-pre-treated PBMC or isolated NK. Format: cell-based. As to the method: (§1) PBMC cytokine release was also measured using a multiplex cytokine assay. FcγR III-158 genotype was determined using a quantitative PCR-based assay kit. Significant differences in ADCC by FcγR Ma or TLR8 genotype were determined using a Kruskal-Wallis one-way analysis of variance, and a post hoc Mann-Whitney non-parametric t test was performed for differences between groups. For cytokine analysis, a Mann-Whitney non-parametric test was performed.

Data set [1] has as its system recurrent or metastatic SCCHN. As to conditions: cited from earlier work.
The test system of another data set is PBMC. The data set can be described thus: PBMC cytokine release, multiplex cytokine assay. Format: cell-based. How it is done:
as §1

The next data set concerns HNC. As to conditions: cited from earlier work.

With `CCCN(CCC)C(=O)C1=Cc2ccc(-c3ccc(C(=O)N4CCCC4)cc3)cc2N=C(N)C1` [motolimod, 2-amino-N,N-dipropyl-8-[4-(pyrrolidin-1-ylcarbonyl)phenyl]-3H-1-benzazepine-4-carboxamide], the “cetuximab-mediated ADCC by TLR8 stimulated PBMC from HNC patients” value in the data set with EGFR^| UM-22B HNC cells (PBMC from HNC patients, p=0.0262) is recorded as “more avid effectors”. In the data set on EGFR^| UM-22B HNC cells (motolimod 250 nM 18 hr pre-treatment, cetuximab 10 μg/mL, 4 hr, FF genotype), the “enhancement of ADCC lytic activity in NK, FcγR IIIc FF genotype” value was found to be 2.6 fold. In the data set on EGFR^| UM-22B HNC cells (motolimod 250 nM 18 hr pre-treatment, cetuximab 10 μg/mL, 4 hr, VF genotype), the “enhancement of ADCC lytic activity in NK, VF genotype” value is reported as 1.7 fold. Further, the “enhancement of ADCC lytic activity in NK, VV genotype” value in the data set on EGFR^| UM-22B HNC cells (motolimod 250 nM 18 hr pre-treatment, cetuximab 10 μg/mL, 4 hr, VV genotype) is 1.8 fold. The “cetuximab-mediated ADCC against HNC cells” value in the data set with EGFR^| UM-22B HNC cells (summary statement) is on record as “enhanced”. For the same compound, the “clinical activity (pharmacologic evidence)” value in data set [1] (in combination with cetuximab, escalating doses of motolimod) was “dose-dependent clinical activity”. The safety profile result in data set [1] (motolimod days 1, 8, 15 in combination with weekly cetuximab, 28-day cycles) is given as “acceptable safety profile”. Also, in the data set on PBMC (p<0.0001), the “IFN-γ secretion, treated versus untreated PBMC” value was “significantly higher levels” and the “TNF-α secretion, treated versus untreated PBMC” value is given as “significantly higher levels”. Further, in the data set on PBMC (p=0.0002), the “IL-12p40 secretion, treated versus untreated PBMC” value was “significantly higher levels”. Moreover, the “IL-12p70 secretion, treated versus untreated PBMC” value in the data set with PBMC (p=0.03) is “significantly higher levels”. For the same compound, the “cetuximab-mediated ADCC and DC IVS of CD8^+ T cells in HNC” value in the data set with HNC (in vitro) was “significantly enhances”. Moreover, the “DC maturation and cross-priming of CD8^+ cells” value in the data set with HNC (motolimod in combination with cetuximab) is on record as “enhances”.

The values above are taken from patent US20180303845A1, “USE OF TLR8 AGONISTS TO TREAT CANCER” (VentiRx Pharmaceuticals, Inc., priority 2015, published 2018).
